Measurements reported in ChEMBL document CHEMBL4219271, “Synthesis and anti-proliferative activity of allogibberic acid derivatives containing 1,2,3-triazole pharmacophore” (Bioorg Med Chem Lett, 2018).

Legend:
Type in all cases: functional, cell-based
[1] = system: SW480; assay: Cytotoxicity against human SW480 cells assessed as decrease in cell viability after 4 days by MTT assay; details: SW480, 96 h
[2] = system: A549; assay: Cytotoxicity against human A549 cells assessed as decrease in cell viability after 4 days by MTT assay; details: A549, 96 h
[3] = system: MCF7; assay: Cytotoxicity against human MCF7 cells assessed as decrease in cell viability after 4 days by MTT assay; details: MCF7, 96 h
[4] = system: SMMC-7721; assay: Cytotoxicity against human SMMC7721 cells assessed as decrease in cell viability after 4 days by MTT assay; details: SMMC-7721, 96 h
[5] = system: HL-60; assay: Cytotoxicity against human HL60 cells assessed as decrease in cell viability after 4 days by MTT assay; details: HL-60, 96 h

C=C1C[C@]23C[C@@]1(O)CC[C@H]2c1ccc(OS(=O)(=O)c2ccc(C)cc2)c(C)c1[C@@H]3Cn1cc(-c2ccc(F)cc2)nn1
IC50 [1]: > 20 µM | IC50 [2]: > 20 µM | IC50 [3]: > 20 µM | IC50 [4]: > 20 µM | IC50 [5]: > 20 µM

COc1ccc(-c2cn(C[C@H]3c4c(ccc(OS(=O)(=O)c5ccc(C)cc5)c4C)[C@@H]4CC[C@@]5(C)C[C@]43CC5=O)nn2)cc1
IC50 [1]: > 20 µM | IC50 [2]: > 20 µM | IC50 [3]: > 20 µM | IC50 [4]: > 20 µM | IC50 [5]: > 20 µM

C=C1C[C@]23C[C@@]1(O)CC[C@H]2c1ccc(OS(=O)(=O)c2ccc(C)cc2)c(C)c1[C@@H]3Cn1cc(-c2ccccc2)nn1
IC50 [1]: > 20 µM | IC50 [2]: > 20 µM | IC50 [3]: > 20 µM | IC50 [4]: > 20 µM | IC50 [5]: > 20 µM

C=C1C[C@]23C[C@@]1(O)CC[C@H]2c1ccc(O)c(C)c1[C@@H]3Cn1cc(-c2ccccc2)nn1
IC50 [1]: > 20 µM | IC50 [2]: > 20 µM | IC50 [3]: > 20 µM | IC50 [4]: > 20 µM | IC50 [5]: > 20 µM

CC(=O)O[C@H]1C(=O)[C@@]2(C)[C@H]([C@H](OC(=O)c3ccccc3)[C@]3(O)C[C@H](OC(=O)[C@H](O)[C@@H](NC(=O)c4ccccc4)c4ccccc4)C(C)=C1C3(C)C)[C@]1(OC(C)=O)CO[C@@H]1C[C@@H]2O [PACLITAXEL]
IC50 [1]: < 0.008 µM | IC50 [2]: < 0.008 µM | IC50 [3]: < 0.008 µM | IC50 [4]: < 0.008 µM | IC50 [5]: < 0.008 µM

COc1ccc(-c2cn(C[C@H]3c4c(ccc(O)c4C)[C@@H]4CC[C@@]5(C)C[C@]43CC5=O)nn2)cc1
IC50 [1]: > 20 µM | IC50 [2]: > 20 µM | IC50 [3]: > 20 µM | IC50 [4]: > 20 µM | IC50 [5]: > 20 µM

C=C1C[C@]23C[C@@]1(O)CC[C@H]2c1cc(Br)c(O)c(C)c1[C@@H]3Cn1cc(-c2ccc(C)cc2)nn1
IC50 [1]: > 20 µM | IC50 [2]: > 20 µM | IC50 [3]: > 20 µM | IC50 [4]: > 20 µM | IC50 [5]: > 20 µM

C=C1C[C@]23C[C@@]1(O)CC[C@@H]2c1cccc(C)c1[C@@H]3Cn1cc(-c2ccccc2)nn1
IC50 [1]: > 20 µM | IC50 [2]: > 20 µM | IC50 [3]: > 20 µM | IC50 [4]: > 20 µM | IC50 [5]: > 20 µM

C=C1C[C@]23C[C@@]1(O)CC[C@@H]2c1cccc(C)c1[C@@H]3Cn1cc(-c2ccc(C)cc2)nn1
IC50 [1]: > 20 µM | IC50 [2]: > 20 µM | IC50 [3]: > 20 µM | IC50 [4]: > 20 µM | IC50 [5]: > 20 µM

Cc1ccc(-c2cn(C[C@H]3c4c(ccc(O)c4C)[C@@H]4CC[C@@]5(C)C[C@]43CC5=O)nn2)cc1
IC50 [1]: > 20 µM | IC50 [2]: > 20 µM | IC50 [3]: > 20 µM | IC50 [4]: > 20 µM | IC50 [5]: > 20 µM

Cc1c(O)ccc2c1[C@H](Cn1cc(-c3ccccc3)nn1)[C@@]13CC(=O)[C@@](C)(CC[C@@H]21)C3
IC50 [1]: > 20 µM | IC50 [2]: > 20 µM | IC50 [3]: > 20 µM | IC50 [4]: > 20 µM | IC50 [5]: > 20 µM

Cc1ccc(S(=O)(=O)Oc2ccc3c(c2C)[C@H](Cn2cc(-c4ccccn4)nn2)[C@@]24CC(=O)[C@@](C)(CC[C@@H]32)C4)cc1
IC50 [1]: > 20 µM | IC50 [2]: > 20 µM | IC50 [3]: > 20 µM | IC50 [4]: > 20 µM | IC50 [5]: > 20 µM

C=C1C[C@]23C[C@@]1(O)CC[C@H]2c1ccc(O)c(C)c1[C@@H]3Cn1cc(-c2ccc(Cl)cc2)nn1
IC50 [1]: > 20 µM | IC50 [2]: > 20 µM | IC50 [3]: > 20 µM | IC50 [4]: > 20 µM | IC50 [5]: > 20 µM

Cc1ccc(-c2cn(C[C@H]3c4c(ccc(OS(=O)(=O)c5ccc(C)cc5)c4C)[C@@H]4CC[C@@]5(C)C[C@]43CC5=O)nn2)cc1
IC50 [1]: > 20 µM | IC50 [2]: > 20 µM | IC50 [3]: > 20 µM | IC50 [4]: > 20 µM | IC50 [5]: > 20 µM

Cc1c(O)ccc2c1[C@H](Cn1cc(-c3ccccn3)nn1)[C@@]13CC(=O)[C@@](C)(CC[C@@H]21)C3
IC50 [1]: > 20 µM | IC50 [2]: > 20 µM | IC50 [3]: > 20 µM | IC50 [4]: > 20 µM | IC50 [5]: > 20 µM
